# Test system: MCF-7 breast adenocarcinoma
# Assay: Cell culture cytotoxicity assay (MTT dye reduction), inhibition of cell growth
# Assay type: cell-based, Human
# Conditions: for IC50: MCF7, Anti-tumour Activity Human Breast Adenocarcinoma Cells, MCF-7, 72 hours incubation, medium with 10 nM calcium leucovorin as folate source, read-out: IC₅₀; for inhibiting the growth of MCF-7 cells: 72 hours, MTT dye reduction, result in words
# Description: Cells and Medium: MCF-7 breast adenocarcinoma, obtained from the American Type Culture Collection (ATCC) are grown in RPMI 1640 medium supplemented with 10 nM calcium leucovorin instead of folic acid as the folate source; 10% dialyzed fetal calf serum, penicillin, streptomycin and sodium pyruvate (110 µg/ml).
# Cytotoxicity Assay: Cells are seeded into 96 well plates using a Perkin Elmer Pro/pette. MCF-7 cells are seeded at 15,000 cells per well in 150 µl of medium and each concentration was assayed in triplicate. Cultures were incubated for 72 hours in a 37^o humidified incubator at5% CO₂. Inhibition of cell growth was measured using the MTT dye reduction assay.
# MTT Dye Reduction Assay: Cell dilutions for a standard curve were prepared from a 72 hour log-phase culture. Serial dilutions were seeded in triplicate in 96 well plates and incubated at 37 for 1 hour. MTT (3-(4,5-dimethylthiazol-2-yl)-2,5-diphenyltetrazolium bromide) was dissolved in phosphate buffered saline at 5 mg/ml and sonicated for 30 seconds. Using the Perkin Elmer Pro/pipette, […] of medium was removed and 100 µl of MTT added to the wells of the standard curve and test plates. Suspension cultures were spun for 5 minutes at 1000 rpm before removing medium from the wells. Plates were incubated for 1 hour at 37^o on a platform shaker. Following this incubation, 100 µl of medium was removed from the wells and 100 µl of dimethylsulphoxide added to each well. The plates were sonicated for approximately 10 seconds to solubilize the precipitated formazan dye. The absorbance of each well was measured using a Titertek Multiskan MC microtiter plate reader at 570 nm with a reference wavelength of 750 nm.
Structure (SMILES),IC50,inhibiting the growth of MCF-7 cells
"Nc1nc(N)c(CCCSc2ccc(C(=O)N[C@@H](CCC(=O)O)C(=O)O)cc2)c(=O)[nH]1 [Example 1F, N-[4-[[3-(2,4-Diamino-1,6-dihydro-6-oxo-5-pyrimidinyl)propyl]thio]benzoyl]-L-glutamic acid]",23 nM,active
"Nc1nc(N)c(CCCOc2ccc(C(=O)N[C@@H](CCC(=O)O)C(=O)O)cc2)c(=O)[nH]1 [Example 2E, N-[4-[3-(2,4-Diamino-1,6-dihydro-6-oxo-5-pyrimidinyl)propoxy]benzoyl]-L-glutamic acid]",85 nM,active

# Reference: patent EP0409382A1, “Glutamic acid derivatives” (THE WELLCOME FOUNDATION LIMITED, priority 1989, dated 1991)
